In PubChem BioAssay (NCI):
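All cell lines were grown in 96-well plates and treated with compound for 48 hours. Definition used: TGI = concentration required for complete inhibition of growth.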 *1 amine or outer side, *2 acyl side, *3 side chain or, on linkers, in order; H or OH if unused. Where a SMILES comes first, the peptide text is derived from it. The star is where a group is joined. γGlu = O=C(O)[CH](CCC(=O)[*:2])N[*:1]; NHOH = ON*

Assays:
Experiment in all cases: NCI-60 cell line screen, 48 h
[1] = tested on: OVCAR-8 ovarian
[2] = tested on: HCT-116 colon
[3] = tested on: DU-145 prostate
[4] = tested on: LOX IMVI melanoma
[5] = tested on: OVCAR-5 ovarian
[6] = tested on: MDA-MB-231 breast
[7] = tested on: HOP-62 NSCLC
[8] = tested on: UACC-62 melanoma
[9] = tested on: HCC-2998 colon
[10] = tested on: MCF7 breast

Compound | TGI [1] | TGI [2] | TGI [3] | TGI [4] | TGI [5] | TGI [6] | TGI [7] | TGI [8] | TGI [9] | TGI [10]
O=C(Nc1ccc(Cl)cc1)c1cc(S(=O)(=O)Nc2nc3ncccc3[nH]2)c(SSc2cc(Cl)c(C(=O)Nc3ccc(Cl)cc3)cc2S(=O)(=O)Nc2nc3ncccc3[nH]2)cc1Cl | > 100 µM | > 100 µM | > 100 µM | > 100 µM | > 100 µM | > 100 µM | > 100 µM | > 100 µM | > 100 µM | > 100 µM
N#C/C=C(/NC(=O)Nc1ccccc1)N1CCCC1 | > 51.8 µM | > 55.5 µM | > 85.6 µM | 97.4 µM | > 100 µM | > 100 µM | > 35.8 µM | > 100 µM | > 53 µM | > 55 µM
Cc1cc2c3c(c1)S(=O)(=O)c1cc(Cl)ccc1N3CCC2 | > 100 µM | > 100 µM | > 100 µM | > 100 µM | > 100 µM | > 100 µM | > 100 µM | > 100 µM | > 100 µM | > 100 µM
CCN(CC)C1=Nc2ccccc2-n2ccnc2C1 | > 100 µM | > 100 µM | > 100 µM | > 100 µM | > 100 µM | > 100 µM | > 100 µM | > 100 µM | > 100 µM | > 100 µM
NC(CCC(=O)NC(CCC(=O)NO)C(=O)NCC(=O)O)C(=O)O (stereo not given) (γGlu-Glu(NHOH)-Gly-OH; configuration not given here) | > 100 µM | > 100 µM | > 100 µM | > 100 µM | > 100 µM | > 100 µM | > 100 µM | > 100 µM | > 100 µM | > 100 µM
CCCCCCc1cc2cc(C(=O)Nc3nc(C45CC6CC(CC(C6)C4)C5)cs3)c(=O)oc2cc1O | 43.1 µM | 13.2 µM | > 100 µM | 30.9 µM | 71.3 µM | 22.3 µM | 37.6 µM | 25.4 µM | 32.8 µM | > 100 µM
Cc1cccc(-c2cc(=O)c3cccnc3[nH]2)c1 | 53.6 µM | > 100 µM | > 100 µM | > 100 µM | > 100 µM | > 100 µM | > 100 µM | > 100 µM | 13.2 µM | > 100 µM
Fc1ccc(/C=C2\COCC3=C2NC(=S)NC3c2ccc(F)cc2)cc1 (stereo not given) | 30 µM | 32.1 µM | 77.3 µM | 38.2 µM | 47 µM | 33.9 µM | 31.7 µM | 32.4 µM | 32.7 µM | 39.5 µM
O=c1[nH]c2c(C(F)(F)F)c(Cl)c(-c3ccccc3)nc2o1 | > 100 µM | 38.4 µM | > 100 µM | > 100 µM | 58.2 µM | 65.2 µM | > 100 µM | > 100 µM | > 100 µM | > 100 µM
CC1=NN(c2ccccc2)C(=O)/C1=C1\SC(c2ccccc2)(c2ccccc2)c2ccccc21 | > 100 µM | > 100 µM | > 100 µM | > 100 µM | > 100 µM | > 100 µM | > 100 µM | > 100 µM | > 100 µM | > 100 µM
CN(C(=O)Cc1cc(Cl)c(Cl)cc1NC(=O)CCCN)[C@H]1CCCC[C@@H]1N1CCCC1 | > 100 µM | > 100 µM | > 100 µM | 39.3 µM | > 100 µM | 77.4 µM | > 100 µM | 40.4 µM | 37.1 µM | 44.2 µM
C[C@]12CCC(=O)C=C1CC[C@@H]1[C@@H]2CC[C@]2(C)C(=O)/C(=C/c3ccc([N+](=O)[O-])cc3)C[C@@H]12 | > 100 µM | > 100 µM | > 100 µM | > 100 µM | > 100 µM | > 100 µM | > 100 µM | 46.2 µM | > 100 µM | 23.5 µM
NC(=O)N/N=C(\Cc1cc(=O)oc2cc(O)ccc12)C(=O)Nc1ccccc1C(N)=O | > 100 µM | > 100 µM | > 100 µM | > 100 µM | > 100 µM | > 100 µM | > 100 µM | > 100 µM | > 100 µM | > 100 µM
CC(=O)N1N=C(c2ccccc2)NC(=O)C1c1cc(C)c(O)c(C)c1 (stereo not given) | 31.4 µM | 54.1 µM | 57.5 µM | > 100 µM | > 100 µM | 46.3 µM | 35.3 µM | 40 µM | 45.9 µM | 43.6 µM
COc1cc2ncnc(Nc3cccc(Br)c3)c2cc1OC | > 35.1 µM | 39.3 µM | 34.2 µM | 10.2 µM | 25 µM | 21.5 µM | > 41.2 µM | 17.5 µM | 10.2 µM | > 52 µM
CN(C)N1C(=C(C#N)C#N)C(c2ccccc2)CC1C#N (stereo not given) | > 100 µM | > 100 µM | > 100 µM | > 100 µM | > 100 µM | > 100 µM | > 100 µM | > 100 µM | > 100 µM | > 100 µM
CC1OC1C(=O)P(=O)(O)O (stereo not given) | > 100 µM | > 100 µM | > 100 µM | > 100 µM | > 100 µM | > 100 µM | > 100 µM | > 100 µM | > 100 µM | > 100 µM
c1ccc(CCCN2C3CCC2CN(CCOC(c2ccccc2)c2ccccc2)C3)cc1 | 23.5 µM | 19.8 µM | 32 µM | 24.5 µM | 25.8 µM | 21 µM | 31.4 µM | 25.5 µM | 18 µM | 25.8 µM

Compound | TGI [1] | TGI [2] | TGI [3] | TGI [4] | TGI [5] | TGI [6] | TGI [7] | TGI [8] | TGI [9] | TGI [10]
NCC(=O)N[C@H]1c2ccsc2/C(=N/O)[C@H]1O | > 100 µM | > 100 µM | > 100 µM | > 100 µM | > 100 µM | > 100 µM | > 100 µM | > 100 µM | > 100 µM | > 100 µM
CCN1CC2=C(OC(N)=C(C#N)C2c2ccc(Cl)cc2)/C(=C/c2ccc(Cl)cc2)C1 (stereo not given) | > 100 µM | 54.9 µM | > 100 µM | > 100 µM | > 100 µM | 69.2 µM | 78.4 µM | > 100 µM | > 100 µM | > 100 µM
OC1CCN2Cc3ccccc3N=C12 (stereo not given) | > 100 µM | > 100 µM | > 100 µM | > 100 µM | > 100 µM | > 100 µM | > 100 µM | > 100 µM | > 100 µM | > 100 µM
CCOC(=O)c1nc(SC)sc1NC(=O)c1ccc(OC)cc1 | > 100 µM | 48.2 µM | > 100 µM | > 100 µM | > 100 µM | > 100 µM | > 100 µM | > 100 µM | > 100 µM | > 100 µM
CC(C)(C)c1ccc(O)c(C(O)c2ccccn2)c1 (stereo not given) | > 100 µM | > 100 µM | > 100 µM | > 100 µM | 89.6 µM | > 100 µM | > 100 µM | 26.4 µM | 85.9 µM | > 100 µM
COC(=O)[C@H](Cc1ccccc1)NC(=O)N(CCN(CCC#N)C(=O)N[C@H](C(=O)OC)C(C)C)c1ccccc1 | > 100 µM | > 100 µM | > 100 µM | > 100 µM | > 100 µM | > 100 µM | > 100 µM | > 100 µM | > 100 µM | > 100 µM
Cc1ccc2[nH]c3c(c2c1)C1CCC(C(C)(C)C)CC1C1C(=O)N(c2ccc(Oc4ccccc4)cc2)C(=O)C31 (stereo not given) | 38.6 µM | > 100 µM | > 100 µM | > 100 µM | > 81 µM | > 100 µM | > 100 µM | > 100 µM | > 100 µM | > 100 µM
COc1cc(/C=C2\CC3C4CC=C5C[C@@H](O)CC[C@]5(C)C4CC[C@]3(C)\C2=N\O)cc(OC)c1OC (stereo not given in full) | > 100 µM | 21.2 µM | > 100 µM | 63.2 µM | 61.1 µM | 74 µM | > 100 µM | 24 µM | 45 µM | 15 µM
COC(=O)C12C(=O)CC3CCC1C32C(=O)OC (stereo not given) | > 100 µM | > 100 µM | > 100 µM | > 100 µM | > 100 µM | > 100 µM | > 100 µM | > 100 µM | > 100 µM | > 100 µM
O=S(=O)(O)c1cc(O)c(N=NC2S(=O)(=O)OCCOS2(=O)=O)c2ccccc12 | > 100 µM | > 100 µM | > 100 µM | > 100 µM | > 100 µM | > 100 µM | > 100 µM | > 100 µM | > 100 µM | > 100 µM
CCOP(=O)(OCC)/C(C#N)=C/c1nc[nH]c1C | > 100 µM | > 100 µM | > 100 µM | > 100 µM | > 100 µM | > 100 µM | > 100 µM | > 100 µM | > 100 µM | > 100 µM
C[C@]12C(=O)OC[C@H](c3ccccc3)N1C(=O)N(Cc1ccccc1)[C@@H]2CO | > 100 µM | > 100 µM | > 100 µM | > 100 µM | > 100 µM | > 100 µM | > 100 µM | > 100 µM | > 100 µM | > 100 µM
Cc1cc(C)c2c(-c3ccccc3)cc(=O)[nH]c2c1 | > 100 µM | > 100 µM | > 100 µM | > 100 µM | > 100 µM | > 100 µM | > 100 µM | > 100 µM | > 100 µM | > 100 µM
CCCCCCCCCCCCCOCCOCCOCCCCC(O)CCCCCCCCCC1=C[C@H](C)OC1=O (stereo not given in full) | > 100 µM | 33.4 µM | 66.3 µM | 42.6 µM | 78.7 µM | 50.5 µM | > 100 µM | 54 µM | 74.4 µM | > 100 µM
CC1=C[C@H](C[C@]2(C)c3c(c4c(C)cccc4oc3=O)O[C@@H]2C)OC1=O | > 100 µM | 30.3 µM | > 100 µM | > 100 µM | > 100 µM | > 100 µM | > 100 µM | > 100 µM | > 100 µM | > 100 µM
Cc1ccc(S(=O)(=O)N(CC(O)COc2ccccc2)c2c(F)c(F)c(F)c(F)c2F)cc1 (stereo not given) | 32.8 µM | 44 µM | 72.9 µM | 28.6 µM | 34.1 µM | 30.7 µM | 35.2 µM | 33.5 µM | 34.5 µM | 23.2 µM
CCCCOC(=O)Nc1ccc(S(=O)(=O)Nc2c(Cl)cccc2Cl)cc1 | 64.6 µM | 57.5 µM | > 100 µM | > 100 µM | > 100 µM | 67.2 µM | > 100 µM | 54.6 µM | 43.4 µM | 92.4 µM
